Measurements from patent US20250215039A1, “NUCLEOSIDES FOR TREATING CANCER” (PRIMEFOUR THERAPEUTICS, INC., priority 2022, published 2025).
Where two headings read alike, the source gives them in different places.

Experiments:
[1] = tested on: cancer cell lines; assay: Cancer cell proliferation activity (CellTiterGlo, 72 h); assay type: cell-based; conditions: 72 h, 72 h, read-out: IC50 cell proliferation
How it was run: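 Cells seeded overnight at 37 °C, then dosed with compound at 0.1% final DMSO and incubated 72 h at 37 °C (5% or 10% CO2 by medium).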

[2] = molecular target: human cytidine deaminase (CDA) (Homo sapiens, UniProt P32320); assay: Metabolism by human cytidine deaminase (CDA), substrate absorbance at 290 nm
Sequence of human cytidine deaminase (CDA) (P32320 whole entry): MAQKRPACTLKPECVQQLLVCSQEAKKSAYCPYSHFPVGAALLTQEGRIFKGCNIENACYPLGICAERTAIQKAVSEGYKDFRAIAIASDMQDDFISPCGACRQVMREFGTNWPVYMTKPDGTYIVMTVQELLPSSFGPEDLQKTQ
Protocol: Transfer 7.2 μl of each of the substrate DMSO stock in step 2 into a 500 μl 96-Well V-bottom Microplate, clear SBS footprint, cat #P-96-450V-C
Add 352.8 μl assay buffer to the wells
For deaminated product compounds mix 4 μl product with 196 μl assay buffer
This was incubated at 37° C. for 1 h. 200 μl of this mixture was transferred into the assay plate to serve as the product control.
Product+buffer: mix 80 ul of the 2.5× intermediate product stocks (from step 3) with 120 ul assay buffer into product control (no enzyme) wells
Incubate the plate alongside the 20 nM CDA enzyme intermediate stock at 37° C. to temperature equilibrate reagents
Add 120 μl of the 20 nM enzyme mix into the Substrate+CDA wells and start reading at 290 nm every 30 s for about 60 min
50 and 200 uM substrate and product
In 100 mM Tris, pH 7.5, 100 mM KCl, 0.8% carryover DMSO
5 min incubation at 37° C.
Absorbance at 290 nm every 30 s at 37° C. for 1 h using FlexStation 3
Convert A290 to concentration of substrate remaining at time t after enzyme addition:
[formula] • where: • St=absorbance reading of: substrate+CDA wells at time t • So=Average absorbance reading of: substrate+buffer wells • Po=Average absorbance reading of: product+buffer wells • [S]t=initial substrate concentration • Use GraphPad to plot [substrate] against time to calculate initial velocity or slope (μMs^−1) i.e. the linear range of each curve • Express rate in s^−1 by dividing initial velocity by the total enzyme concentration.
Plot rate against [substrate] and fit data to standard Michaelis Menten equation to obtain kcat and KM parameters.

- IC50 ([1]; 5637 (bladder)): 3.87 µM
- IC50 ([1]; CLS439 (bladder)): > 50 µM
- IC50 ([1]; HS729 (muscle)): 4.74 µM
- IC50 ([1]; J82 (bladder)): > 50 µM
- IC50 ([1]; JAR (placenta)): > 50 µM
- IC50 ([1]; MT3 (breast)): 1.08 µM
- IC50 ([1]; PANCI (pancreas)): > 50 µM
- IC50 ([1]; PC3 (prostate)): 1.46 µM
- IC50 ([1]; RD (muscle)): > 50 µM
- IC50 ([1]; T24 (bladder)): 3.21 µM
- IC50 ([1]; Homo sapiens, 22Rv1, 72 h, 22RV1 (prostate)): > 50 µM
- IC50 ([1]; Homo sapiens, 786-0, 72 h, 786O (kidney)): > 50 µM
- IC50 ([1]; Homo sapiens, A204, 72 h, A204 (muscle)): 0.17 µM
- IC50 ([1]; Homo sapiens, A549, 72 h, A549 (lung)): 2.9 µM
- IC50 ([1]; Homo sapiens, A673, 72 h, A673 (bone)): > 50 µM
- IC50 ([1]; Homo sapiens, A2780, 72 h, A2780 (ovary)): 5.39 µM
- IC50 ([1]; Homo sapiens, A-375, 72 h, A375 (skin)): > 50 µM
- IC50 ([1]; Homo sapiens, A-431, 72 h, A431 (skin)): 3.8 µM
- IC50 ([1]; Homo sapiens, ACHN, ACHN (kidney)): 2.85 µM
- IC50 ([1]; Homo sapiens, ASPC1, 72 h, ASPC1 (pancreas)): > 50 µM
- IC50 ([1]; Homo sapiens, BT-20, 72 h, BT20 (breast)): > 50 µM
- IC50 ([1]; Homo sapiens, BXPC-3, 72 h, BXPC3 (pancreas)): > 50 µM
- IC50 ([1]; Homo sapiens, C-33-A, C33A (endometrial)): 2.08 µM
- IC50 ([1]; Homo sapiens, CAKI-1, 72 h, CAKI1 (kidney)): 1.07 µM
- IC50 ([1]; Homo sapiens, COLO 205, 72 h, COLO205 (colon)): 3.03 µM
- IC50 ([1]; Homo sapiens, COLO-678, 72 h, COLO678 (colon)): > 50 µM
- IC50 ([1]; Homo sapiens, Ca-Ski, CASKI (endometrial)): > 50 µM
- IC50 ([1]; Homo sapiens, Caco-2, 72 h, CACO2 (colon)): > 50 µM
- IC50 ([1]; Homo sapiens, Calu-6, 72 h, CALU6 (lung)): 5.25 µM
- IC50 ([1]; Homo sapiens, DLD-1, 72 h, DLD1 (colon)): > 50 µM
- IC50 ([1]; Homo sapiens, DU-145, 72 h, DU145 (prostate)): 3.18 µM
- IC50 ([1]; Homo sapiens, EFO-21, 72 h, EFO21 (ovary)): > 50 µM
- IC50 ([1]; Homo sapiens, EJ-28, 72 h, EJ28 (bladder)): > 50 µM
- IC50 ([1]; Homo sapiens, Granta-519, 72 h, GRANTA-519 (hematological)): 1.24 µM
- IC50 ([1]; Homo sapiens, HCT-15, 72 h, HCT15 (colon)): 3.1 µM
- IC50 ([1]; Homo sapiens, HCT-116, 72 h, HCT116 (colon)): 3.28 µM
- IC50 ([1]; Homo sapiens, HEK293, 72 h, HEK293 (kidney)): > 50 µM
- IC50 ([1]; Homo sapiens, HL-60, 72 h, HL-60 (hematological)): > 50 µM
- IC50 ([1]; Homo sapiens, HT-29, 72 h, HT29 (colon)): > 50 µM
- IC50 ([1]; Homo sapiens, HT-1080, 72 h, HT1080 (connective tissue)): 4.73 µM
- IC50 ([1]; Homo sapiens, HeLa, HELA (endometrial)): > 50 µM
- IC50 ([1]; Homo sapiens, HepG2, 72 h, HEPG2 (liver)): > 50 µM
- IC50 ([1]; Homo sapiens, Hs-578T, HS578T (breast)): > 50 µM
- IC50 ([1]; Homo sapiens, IGROV-1, 72 h, IGROV1 (ovary)): 4.31 µM
- IC50 ([1]; Homo sapiens, IMR-90, 72 h, IMR90 (lung)): > 50 µM
- IC50 ([1]; Homo sapiens, JEG-3, 72 h, JEG3 (placenta)): > 50 µM
- IC50 ([1]; Homo sapiens, JIMT-1, 72 h, JIMT1 (breast)): 2.23 µM
- IC50 ([1]; Homo sapiens, K562, 72 h, K-562 (hematological)): > 50 µM
- IC50 ([1]; Homo sapiens, Kasumi 1, 72 h, KASUMI-1 (hematological)): 2.23 µM
- IC50 ([1]; Homo sapiens, L-363, 72 h, L-363 (hematological)): > 50 µM
- IC50 ([1]; Homo sapiens, LoVo, LOVO (colon)): 2.74 µM
- IC50 ([1]; Homo sapiens, MCF7, 72 h, MCF7 (breast)): > 50 µM
- IC50 ([1]; Homo sapiens, MDA-MB-231, 72 h, MDAMB231 (breast)): 2.23 µM
- IC50 ([1]; Homo sapiens, MDA-MB-435, 72 h, MDAMB435 (skin)): 4.7 µM
- IC50 ([1]; Homo sapiens, MDA-MB-436, 72 h, MDAMB436 (breast)): > 50 µM
- IC50 ([1]; Homo sapiens, MDA-MB-468, 72 h, MDAMB468 (breast)): > 50 µM
- IC50 ([1]; Homo sapiens, MG-63, 72 h, MG63 (bone)): > 50 µM
- IC50 ([1]; Homo sapiens, MHH-ES-1, 72 h, MHHES1 (bone)): > 50 µM
- IC50 ([1]; Homo sapiens, MIA PaCa-2, 72 h, MIAPACA2 (pancreas)): > 50 µM
- IC50 ([1]; Homo sapiens, MINO, MINO (hematological)): 0.43 µM
- IC50 ([1]; Homo sapiens, MV4-11, 72 h, MV4-11 (hematological)): 3.8 µM
- IC50 ([1]; Homo sapiens, NCI-H23, 72 h, NCI-H23 (lung)): > 50 µM
- IC50 ([1]; Homo sapiens, NCI-H82, 72 h, NCIH82 (lung)): > 50 µM
- IC50 ([1]; Homo sapiens, NCI-H292, 72 h, NCIH292 (lung)): > 50 µM
- IC50 ([1]; Homo sapiens, NCI-H460, 72 h, NCIH460 (lung)): 5.68 µM
- IC50 ([1]; Homo sapiens, OVCAR-3, 72 h, OVCAR3 (ovary)): 2.57 µM
- IC50 ([1]; Homo sapiens, OVCAR-4, 72 h, OVCAR4 (ovary)): > 50 µM
- IC50 ([1]; Homo sapiens, PLC-PRF-5, 72 h, PLCPRF5 (liver)): > 50 µM
- IC50 ([1]; Homo sapiens, Panc1005, 72 h, PANC1005 (pancreas)): > 50 µM
- IC50 ([1]; Homo sapiens, Ramos, RAMOS (hematological)): 2.69 µM
- IC50 ([1]; Homo sapiens, SAOS-2, 72 h, SAOS2 (bone)): 1.49 µM
- IC50 ([1]; Homo sapiens, SF-268, 72 h, SF268 (brain)): 3.8 µM
- IC50 ([1]; Homo sapiens, SF-295, 72 h, SF295 (brain)): > 50 µM
- IC50 ([1]; Homo sapiens, SK-BR-3, 72 h, SKBR3 (breast)): 4.56 µM
- IC50 ([1]; Homo sapiens, SK-HEP1, 72 h, SKHEP1 (liver)): 2.54 µM
- IC50 ([1]; Homo sapiens, SK-LMS-1, 72 h, SKLMS1 (uterus)): > 50 µM
- IC50 ([1]; Homo sapiens, SK-MEL-5, 72 h, SKMEL5 (skin; SKMELS [sic] in Table 9E)): > 50 µM
- IC50 ([1]; Homo sapiens, SK-MEL-28, 72 h, SKMEL28 (skin)): > 50 µM
- IC50 ([1]; Homo sapiens, SK-N-AS, SKNAS (brain)): > 50 µM
- IC50 ([1]; Homo sapiens, SK-N-SH, SKNSH (brain)): > 50 µM
- IC50 ([1]; Homo sapiens, SK-OV-3, 72 h, SKOV3 (ovary)): > 50 µM
- IC50 ([1]; Homo sapiens, SNB-75, 72 h, SNB75 (brain)): > 50 µM
- IC50 ([1]; Homo sapiens, SU-DHL10, 72 h, SU-DHL-10 (hematological)): 2.73 µM
- IC50 ([1]; Homo sapiens, SU-DHL-6, 72 h, SU-DHL-6 (hematological)): 2.87 µM
- IC50 ([1]; Homo sapiens, SW-620, 72 h, SW620 (colon)): 4.6 µM
- IC50 ([1]; Homo sapiens, TE-671, 72 h, TE671 (muscle)): > 50 µM
- IC50 ([1]; Homo sapiens, THP-1, 72 h, THP-1 (hematological)): 3.44 µM
- IC50 ([1]; Homo sapiens, U2OS, U20S (bone; U2OS in Table 9E)): > 50 µM
- IC50 ([1]; Homo sapiens, U-87 MG, U87MG (brain)): 2.91 µM
- IC50 ([1]; Homo sapiens, UMUC3, 72 h, UMUC3 (bladder)): > 50 µM
- IC50 ([1]; Homo sapiens, UO-31, 72 h, UO31 (kidney)): 8.13 µM
- IC50 ([1]; Homo sapiens, WSU-NHL, WSU-NHL (hematological)): 1.67 µM
- IC50 ([1]; NCI-H358M, NCIH358M (lung)): 1.04 µM
- IC50 ([1]; PBMC, PBMC (hematological)): 2.61 µM
- IC50 ([1]; RD-ES, RDES (bone)): > 50 µM
- metabolism (deamination) by human CDA (line graph) ([2]; 12 nM CDA, 50 and 200 uM substrate, 37° C., pH 7.5, figure legends FIG. 4-9): not metabolized
- substrate conversion by CDA (Inactive) ([2]; rate of substrate conversion at 200 μM, could not be fitted): Inactive
Structure (SMILES): C[C@]1(CO)O[C@@H](n2ccc(N)nc2=O)C(F)(F)[C@@H]1O [Cpd. No. 190, 4-amino-1-((2R,4R,5R)-3,3-difluoro-4-hydroxy-5-(hydroxymethyl)-5-methyltetrahydrofuran-2-yl)pyrimidin-2(1H)-one]
